The subject of assay [1] is Staphylococcus aureus. Kind of assay: Antimicrobial activity against Staphylococcus aureus isolate UAMS-929 harboring sarA gene mutant by Etest method. The assay is classed as functional.
Assay [2] deals with Staphylococcus aureus. As to the kind of experiment: Antimicrobial activity against Staphylococcus aureus isolate UAMS-1 by Etest method. The assay is classed as functional.

Values after ≈ are worked out from the molar mass of the structure shown.

With `CCCCCCCCCC(=O)N[C@@H](Cc1c[nH]c2ccccc12)C(=O)N[C@H](CC(N)=O)C(=O)N[C@@H](CC(=O)O)C(=O)N[C@@H]1C(=O)NCC(=O)N[C@@H](CCCN)C(=O)N[C@@H](CC(=O)O)C(=O)N[C@H](C)C(=O)N[C@@H](CC(=O)O)C(=O)NCC(=O)N[C@H](CO)C(=O)N[C@@H]([C@H](C)CC(=O)O)C(=O)N[C@@H](CC(=O)c2ccccc2N)C(=O)O[C@@H]1C`, the MIC in assay [1] and in assay [2] was 0.75 µg/mL (≈ 0.463 µM) in each case.
Consider `CC(=O)NC[C@H]1CN(c2ccc(N3CCOCC3)c(F)c2)C(=O)O1` [LINEZOLID], for which the MIC in assay [1] and in assay [2] was 1 µg/mL (≈ 2.96 µM) throughout.
Consider `CN[C@H](CC(C)C)C(=O)N[C@H]1C(=O)N[C@@H](CC(N)=O)C(=O)N[C@H]2C(=O)N[C@H]3C(=O)N[C@H](C(=O)N[C@H](C(=O)O)c4cc(O)cc(O)c4-c4cc3ccc4O)[C@H](O)c3ccc(c(Cl)c3)Oc3cc2cc(c3O[C@@H]2O[C@H](CO)[C@@H](O)[C@H](O)[C@H]2O[C@H]2C[C@](C)(N)[C@H](O)[C@H](C)O2)Oc2ccc(cc2Cl)[C@H]1O` [VANCOMYCIN], for which the MIC in assay [1] and in assay [2] was 1.5 µg/mL (≈ 1.04 µM) each time.

These data come from ChEMBL document CHEMBL1649440, “Impact of sarA on antibiotic susceptibility of Staphylococcus aureus in a catheter-associated in vitro model of biofilm formation” (2009).
